Measurements: US20170088822A1 (priority 2015, published 2017)
Where “and” joins values, the source holds several entries; their conditions need not be identical. Identical values can stand only once.

Experiments:
[1] = system: BpmFabI; type: biochemical, Burkholderia pseudomallei
[2] = system: BpmFabI; type: binding, Burkholderia pseudomallei
[3] = system: S. aureus; details: cited from earlier work
[4] = system: drug resistant staphylococci including MRSA and MRSE; details: cited from earlier work

## AFN-1252
[1]
  Mechanism of inhibition with respect to NADH (Lineweaver-Burk): mixed inhibition
  Mechanism of inhibition with respect to crotonyl-CoA (Lineweaver-Burk): uncompetitive
[1]; read-out: IC50 for inhibition of BpmFabI
  IC50: 9.6 nM
[2]
  ΔTm: 12.76 ± 1.26 °C and 11.61 ± 0.10 °C
[3]
  MIC50: 2 to 120 ng/mL
[4]
  Activity against drug resistant staphylococci: potent
